What was measured:
GPR120 [1] = conditions: cited from earlier work
GPR40 = molecular target: T1, GPR40 (Homo sapiens, UniProt O14842); assay: GPR40 Ca2+ flow assay in CHO cells with transient GPR40 gene; format: cell-based; conditions: CHO cells, GPR40; read-out: FFA1 (Ca2+ pEC50) (converted)
T1 construct: expressed in transfected cells; host or cells: CHO (transient)
Method: Ca^2+ flow activity was determined in HEK293 cells stably transfecting the GPR120-Rluc gene. After incubating the cells for 24 h, the medium was removed from the plate, and the cells were washed with HBSS buffer (without Ca^2+ and Mg^2+). Subsequently, a 2-μM Fluo-4 AM working solution in HBSS buffer (without Ca^2+ and Mg^2+) was added to the plate (40 μl per well). After incubating the cells for 20 min at 37°C, compound solution at different concentrations in HBSS buffer (per well 160 μl) was added. Followed by a 40-min incubation, the solution was removed from the plate, HEPES buffer (200 μl per well) was added, and the fluorescence intensity was detected using the microplate reader (Ex: 488 nm; Em: 520 nm) ([Watterson et al., 2017]).
Ca^2+ flow activity was determined in CHO cells with transient GPR40 gene by the same method as well, in which the GPR40 agonist TAK875 was used as a positive control.

GPR120 [2] = molecular target: T2, GPR120 (Homo sapiens, UniProt Q5NUL3); assay: GPR120 Ca2+ flow assay in HEK293 cells stably transfecting the GPR120-Rluc gene; format: cell-based; set-up: expressed in transfected cells; conditions: for Emax (FFA4 Ca2+): GSK137647A used as a standard
T2 sequence (Q5NUL3 1-361): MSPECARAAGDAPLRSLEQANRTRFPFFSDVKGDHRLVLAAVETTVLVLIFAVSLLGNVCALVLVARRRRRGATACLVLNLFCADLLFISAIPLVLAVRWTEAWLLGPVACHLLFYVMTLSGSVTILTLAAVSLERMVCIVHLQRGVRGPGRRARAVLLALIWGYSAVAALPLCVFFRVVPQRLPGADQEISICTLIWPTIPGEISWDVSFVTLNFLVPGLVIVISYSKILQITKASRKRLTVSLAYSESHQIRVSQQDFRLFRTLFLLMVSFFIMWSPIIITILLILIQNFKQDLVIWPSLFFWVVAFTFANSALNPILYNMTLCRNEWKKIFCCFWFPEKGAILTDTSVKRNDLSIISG
Method: Ca^2+ flow activity was determined in HEK293 cells stably transfecting the GPR120-Rluc gene. After incubating the cells for 24 h, the medium was removed from the plate, and the cells were washed with HBSS buffer (without Ca^2+ and Mg^2+). Subsequently, a 2-μM Fluo-4 AM working solution in HBSS buffer (without Ca^2+ and Mg^2+) was added to the plate (40 μl per well).

GPR120 [3] = molecular target: T2, GPR120; assay: Preliminary screening of agonists by BRET competition with probe N1; format: binding; set-up: expressed in transfected cells; conditions: 10 μM compound, probe N1 400 nM
Method: HEK293 cells stably transfected with the GPR120-Rluc gene were seeded in a black 96-well plate (100 μl, 2 × 10^4 cells per well). After a 24-h incubation, the medium was removed, probe N1 (400 nM, 50 μl per well) was added, and 10 μM of the compound was added after a 30-min incubation as well. Followed by a 40-min incubation, coelenterazine (final concentration: 10 μM, 50 μl per well) was added to the plate. Afterward, the fluorescence intensity was measured at 450 and 550 nm with the microplate reader after another 10-min incubation.

GPR120 [4] = molecular target: T2, GPR120; assay: BRET activity test (β-arrestin-2 recruitment, GPR120-YFP / β-arrestin-2-Rluc in HEK293 cells); format: cell-based; set-up: host or cells: HEK293 (transfected with both plasmids); conditions: for Emax (FFA4 β-arrestin2): GSK137647A used as a standard
Method: GPR120-YFP and β-arresting-2-Rluc plasmids were transfected into HEK293 cells. After a 24-h incubation, the cells were seeded in a black 96-well plate (100 μl, 20,000 cells per well). Followed by a 24-h incubation, the solution was removed from the plate, and compounds with different concentrations (100 μl per well) and coelenterazine (10 μM, 100 μl per well) were added, followed by the fluorescence intensity was measured at 460 and 520 nm with the microplate reader ([Christiansen et al., 2016]; [Hill et al., 2018]).

[5] = Optical property of fluorescent probes; format: physicochemical; conditions: for λabs: MeCN; for Φ (absolute quantum yield) / λem / λex: PBS; for SS (stokes shift): PBS buffer (pH = 7.4)
Method: The stocking solution of probes was diluted with acetonitrile to 40 μM, and their ultraviolet absorption spectrum was scanned with an ultraviolet spectrophotometer. Secondly, the excitation and emission spectra of probes at 10, 20, 30, and 40 μM with PBS buffer were measured with a microplate reader. Moreover, the excitation and emission spectrum were recorded in four solvents: MeCN, DMSO, H2O, and EA, respectively.

[6] = Table 3, read-out: FFA4 (Ca2+ pEC50) (converted)
[7] = Table 3, read-out: FFA4 (β-arrestin2 pEC50) (converted)
[8] = GPR120, Ca2+ flow, HEK293 GPR120-Rluc cells, read-out: pEC50 Ca2+ assay (converted)
[9] = GPR120, β-arrestin-2 activity test, read-out: pEC50 BRET (converted)

In the case of `Cc1ccc(S(=O)(=O)NC2c3ccccc3Oc3ccccc32)cc1` [AH-7614], the “pEC50 (Literature)” value (GPR120 [1]) is listed as <4.5^16.

Compound `Cc1cc(C)c(NS(=O)(=O)c2ccc(-c3ccccc3)cc2)c(C)c1` [Compound B1, N-Mesityl-[1,1′-biphenyl]-4-sulfonamide] has a melting point of 165 to 166 °C.

With `Cc1cc(C)c(NS(=O)(=O)c2ccc(-c3ccc(F)cc3)cc2)c(C)c1` [Compound B2, 4′-Fluoro-N-Mesityl-[1,1′-Biphenyl]-4-Sulfonamide] the melting point was 214 to 215 °C.

For `Cc1cc(C)c(NS(=O)(=O)c2ccc(-c3ccc(Br)cc3)cc2)c(C)c1` [Compound B3, 4′-Bromo-N-Mesityl-[1,1′-Biphenyl]-4-Sulfonamide], the melting point was 176 to 177 °C.

With `Cc1ccc(-c2ccc(S(=O)(=O)Nc3c(C)cc(C)cc3C)cc2)cc1` [Compound B4, N-Mesityl-4′-Methyl-[1,1′-Biphenyl]-4-Sulfonamide] the melting point was 195 to 196 °C.

For `Cc1cc(C)c(NS(=O)(=O)c2ccc(-c3ccc(OC(F)(F)F)cc3)cc2)c(C)c1` [Compound B5, N-Mesityl-4′-(Trifluoromethoxy)-[1,1′-Biphenyl]-4-Sulfonamide], the EC50 (GPR40) was over 50100 nM, the melting point was 169 to 170 °C and the “Emax (FFA4 Ca2+)” value (GPR120 [2]) was 1.27. For the same compound, the EC50 (GPR120 [2]; [6]) was 81.3 nM, the “inhibition rate in BRET screening compared with GSK137647A” value (GPR120 [3]) was “higher than GSK137647A” and the “Emax (FFA4 β-arrestin2)” value (GPR120 [4]) was 0.790. The EC50 (GPR120 [4]; [7]) was 43.7 nM.

In the case of `Cc1cc(C)c(NS(=O)(=O)c2ccc(-c3ccc(N)c(F)c3)cc2)c(C)c1` [Compound B6, 4′-Amino-3′-Fluoro-N-Mesityl-[1,1′-Biphenyl]-4-Sulfonamide], the EC50 (GPR40) is reported as over 50100 nM, the melting point is reported as 176 to 177 °C and the “Emax (FFA4 Ca2+)” value (GPR120 [2]) is reported as 1.25. The EC50 (GPR120 [2]; [6]) was 204 nM, the “inhibition rate in BRET screening compared with GSK137647A” value (GPR120 [3]) was “higher than GSK137647A” and the “Emax (FFA4 β-arrestin2)” value (GPR120 [4]) was 0.881. It also gave an EC50 (GPR120 [4]; [7]) of 132 nM.

With `Cc1cc(C)c(NS(=O)(=O)c2ccc(-c3ccc4ccccc4c3)cc2)c(C)c1` [Compound B7, N-Mesityl-4-(Naphthalen-2-yl)benzenesulfonamide] the EC50 (GPR40) was over 50100 nM, the melting point was 211 to 212 °C and the “Emax (FFA4 Ca2+)” value (GPR120 [2]) was 0.285. The EC50 (GPR120 [2]; [6]) was 138 nM, the “inhibition rate in BRET screening compared with GSK137647A” value (GPR120 [3]) was “higher than GSK137647A” and the “Emax (FFA4 β-arrestin2)” value (GPR120 [4]) was 0.894. It also gave an EC50 (GPR120 [4]; [7]) of 19.5 nM.

In the case of `Cc1cc(C)c(NS(=O)(=O)c2ccc(-c3ccc(Cl)cc3)cc2)c(C)c1` [Compound B8, 4′-Chloro-N-Mesityl-[1,1′-Biphenyl]-4-Sulfonamide], the melting point is reported as 214 to 215 °C.

In the case of `Cc1cc(C)cc(COc2ccc(S(=O)(=O)Nc3c(C)cc(C)cc3C)cc2)c1` [Compound C1, 4-((3,5-Dimethylbenzyl)oxy)-N-mesitylbenzenesulfonamide], the melting point is reported as 152 to 153 °C.

Work on `Cc1cc(C)c(NS(=O)(=O)c2ccc(OCc3c(F)cccc3C(F)(F)F)cc2)c(C)c1` [Compound C2, 4-((2-Fluoro-6-(trifluoromethyl)benzyl)oxy)-N-mesitylbenzenesulfonamide] yielded a melting point of 154 to 155 °C.

`Cc1cc(C)c(NS(=O)(=O)c2ccc(OCc3ccc(Br)cc3)cc2)c(C)c1` [Compound C3, 4-((4-Bromobenzyl)oxy)-N-mesitylbenzenesulfonamide] gave a melting point of 161 to 162 °C.

`COc1ccc(NS(=O)(=O)c2ccc(-c3ccc(OC(F)(F)F)cc3)cc2)cc1OC` [Compound D1, N-(3,4-Dimethoxyphenyl)-4′-(Trifluoromethoxy)-[1,1′-Biphenyl]-4-Sulfonamide] showed a melting point of 145 to 146 °C.

With `O=S(=O)(Nc1ccc(OC(F)(F)F)cc1)c1ccc(-c2ccc(OC(F)(F)F)cc2)cc1` [Compound D2, 4′-(Trifluoromethoxy)-N-(4-(Trifluoromethoxy)phenyl)-[1,1′-Biphenyl]-4-Sulfonamide] the melting point was 139 to 140 °C.

`COc1cc(NS(=O)(=O)c2ccc(-c3ccc(OC(F)(F)F)cc3)cc2)cc(OC)c1OC` [Compound D3, 4′-(Trifluoromethoxy)-N-(3,4,5-Trimethoxyphenyl)-[1,1′-Biphenyl]-4-Sulfonamide] showed a melting point of 136 to 137 °C.

`O=S(=O)(Nc1ccc(Oc2ccccc2)cc1)c1ccc(-c2ccc(OC(F)(F)F)cc2)cc1` [Compound D4, N-(4-Phenoxyphenyl)-4′-(Trifluoromethoxy)-[1,1′-Biphenyl]-4-Sulfonamide] showed a melting point of 144 to 145 °C.

With `O=S(=O)(Nc1ccc(Cl)cc1Cl)c1ccc(-c2ccc3ccccc3c2)cc1` [Compound D7, N-(2,4-Dichlorophenyl)-4-(naphthalen-2-yl)benzenesulfonamide] the EC50 (GPR40) was over 50100 nM, the melting point was 175 to 176 °C and the “Emax (FFA4 Ca2+)” value (GPR120 [2]) was 0.752. The EC50 (GPR120 [2]; [6]) was 129 nM, the “inhibition rate in BRET screening compared with GSK137647A” value (GPR120 [3]) was “higher than GSK137647A” and the “Emax (FFA4 β-arrestin2)” value (GPR120 [4]) was 1.17. For the same compound, the EC50 (GPR120 [4]; [7]) was 16.6 nM.

With `Cc1cc(C)c(NS(=O)(=O)c2ccc(NCCCN3C(=O)c4cccc5c(N(C)C)ccc(c45)C3=O)cc2)c(C)c1` [Compound N2, 4-((3-(6-(Dimethylamino)-1,3-dioxo-1H-benzo[de]isoquinolin-2(3H)-yl)propyl)amino)-N-mesitylbenzenesulfonamide] the λabs [5] was 418 nm, the “Φ (absolute quantum yield)” value [5] was 2.28% and the λem [5] was 562 nm. For the same compound, the λex [5] was 439 nm, the “SS (stokes shift)” value [5] was 123 nm and the melting point was 103 to 104 °C. For the same compound, the EC50 (GPR120 [2]; [8]) was 6310 nM and the EC50 (GPR120 [4]; [9]) was 562 nM.

With `Cc1cc(C)c(NS(=O)(=O)c2ccc(NCCCCN3C(=O)c4cccc5c(N(C)C)ccc(c45)C3=O)cc2)c(C)c1` [Compound N3, 4-((4-(6-(Dimethylamino)-1,3-dioxo-1H-benzo[de]isoquinolin-2(3H)-yl)butyl)amino)-N-mesitylbenzenesulfonamide] the λabs [5] was 417 nm, the “Φ (absolute quantum yield)” value [5] was 1.03% and the λem [5] was 560 nm. The λex [5] was 438 nm, the “SS (stokes shift)” value [5] was 122 nm and the melting point was 184 to 185 °C. The EC50 (GPR120 [2]; [8]) was 8910 nM and the EC50 (GPR120 [4]; [9]) was 1780 nM.
